Experimental data published in patent US20250043250A1, “COMPOSITIONS AND METHODS FOR EXPANDING KERATINOCYTES” (STEMCELL Technologies Canada Inc., priority 2021, published 2025).

Legend:
[1] = tested on: PSC-derived keratinocytes; assay: Adherent monolayer culture of dissociated PSC-derived hair-bearing skin organoid cells: colony emergence and morphology; assay type: cell-based, human; details: H9 ES and 1C iPS derived cells, HKGS medium supplemented with the small molecule(s) (FIG. 11)
Protocol: The aggregates of Example 1 were plated under non-adherent conditions in an AggreWell™ or a 96-well plate, and cultured for 12 days in a skin organoid induction medium, such as STEMdiff™ Skin Organoid Induction Medium (STEMCELL Technologies). Following, the skin organoids are transferred into STEMdiff™ Skin Organoids Maturation Medium (STEMCELL Technologies) for at least 8 weeks, adding or changing the medium every 3-4 days. After the skin organoids have matured, preferably presenting as hair-bearing skin organoids (e.g. hair placode present skin organoids), they are dissociated overnight in a 37 degree incubator in a Dispase solution. […]
Various commercially available cell culture media are marketed for the purpose of culturing human epidermal keratinocytes: EpiLife™ Defined Growth Supplement for use with EpiLife™ medium; Gibco™ Human Keratinocyte Growth Supplement for use with EpiLife medium or Medium 154; and Cnt-57 Epithelial Proliferation Medium. […] Population doublings were also assessed over several weeks for keratinocytes grown from various PSC lines in a culture medium of this disclosure in comparison to EpiLife EDGS and EpiLife HKGS. […]

TP63 = assay: FACS analysis of TP63+ cells; assay type: cell-based, human; details: 1C iPS derived skin organoid cells, HKGS medium with or without supplement (FIG. 12)
Text: WLS-1C iPS cells were formed into hair-bearing skin organoids as described herein and dissociated prior to plating the cells in EpiLife HKGS, or in EpiLife HKGS supplemented with the indicated small molecules. The cells were stained for TP63 expression and analyzed by FACS.
The ability of a commercially available medium to expand PSC-derived keratinocytes could be somewhat restored upon supplementation with one or more small molecule inhibitors, but not to the levels of DermaCult™ (FIG. 11). Specifically, HKGS medium was supplemented with A83-01, DAPT, Y-27632, or all three of A83-01, DAPT, and Y-27632. […] These findings were confirmed in a different experiment where 1C iPS cells were cultured in the foregoing media conditions and analyzed for p63 expression, to distinguish keratinocytes from other cell types included in the PSC-derived skin organoids, such as fibroblasts (FIG. 12).

With `C[C@@H](N)[C@H]1CC[C@H](C(=O)Nc2ccncc2)CC1` [Y-27632] the “emergence of colonies in supplemented HKGS medium” value [1] was “emergence of colonies” and the “emergence of p63+ cells” value (TP63) was “emergence of comparable numbers of p63+ cells”.
